# Where a SMILES comes first, the peptide text is derived from it. The star is where a group is joined. Cbz = O=C(OCc1ccccc1)*
# Tested on: CL4176 transgenic strain of C. elegans
# Test: Paralysis assay after induction of Ab peptide expression in C. elegans
# Assay type: in vivo, Caenorhabditis elegans
# Conditions: third day after inducing Ab peptide expression at 23° C.; 100 μl of fraction per plate; ZPP 0.1 mM
# Method: An oxidative stress assay using the CL4176 transgenic strain of C. elegans was carried out, characterized by expressing the human amyloid beta-peptide (Abl-42) after temperature induction.
# Prior data in the literature indicate that the formation of amyloid beta-peptide plaques is preceded by oxidative stress (Drake et al, “Oxidative stress precedes fibrillar deposition of Alzheimer's disease amyloid beta-peptide (1-42) in a transgenic Caenorhabditis elegans model” Neurobiol Aging 2003, 24(3):415-20). Therefore, it is interesting to evaluate if the hypothetical reduction of fibrillar deposition of Ab peptides in the neurons produced by the action of a molecule or compound gives rise to greater resistance against oxidative stress treatments. Furthermore, the expression of said peptide in these transgenic animals produces a paralysis that can be evaluated after adding the molecule or compound of interest.
# To carry out the experiment, worms of the CL4176 strain having a synchronized age by means of plate cultivation of NG at 16° C. were obtained. The eggs were collected in NG plates which contained 100 μl of each peptide fraction (F11, F12, F14 and F18). […] For the first 3 days after induction, the number of worms paralyzed in each assayed condition was analyzed. […] The plates were incubated at 23° C. and after 5 hours the total number of worms that survived treatment were counted.
smiles,measurement,value
O=C[C@@H]1CCCN1C(=O)[C@@H]1CCCN1C(=O)OCc1ccccc1 [Z-prolyl prolinal] (Cbz-Pro-Pro-aldehyde),percentage of non-paralyzed worms,99.44%
